Experimental data: patent US20260250721A1, “Biological Anisole Production” (Wageningen Universiteit, priority 2023, published 2026)

Assays:
P. putida KT2440 = test: Toxicity analysis: growth of P. putida KT2440 at different phenol and anisole concentrations
Description: (§1) P. putida and E. coli cultures were incubated at 30° C. and 37° C. respectively. For cloning purposes, both strains were propagated in Lysogeny Broth (LB) medium containing 10 g/L NaCl, 10 g/L tryptone, and 5 g/L yeast extract. For the preparation of solid media, 1.5% (w/v) agar was added. […] All growth experiments were performed using M9 minimal medium (per Liter; 3.88 g K2HPO4, 1.63 g NaH2PO4, 2.0 g (NH4)2SO4, pH 7.0. The M9 media was supplemented with a trace elements solution (10 mg/L ethylenediaminetetraacetic acid (EDTA), 0.1 g/L MgCl2 6 H2O, 2 mg/L ZnSO4·7H2O, 1 mg/L CaCl2)·2H2O, 5 mg/L FeSO4·7 H2O, 0.2 mg/L Na2MoO4·2H2O, 0.2 mg/L CuSO4·5H2O, 0.4 mg/L CoCl2·6H2O, 1 mg/L MnCl2·2H2O). In these experiments, strains were precultured in 10 mL LB with corresponding antibiotics. Then, the cultures were washed twice in M9 media without a carbon source. Finally, the cultures were diluted to an OD600 of 0.1 to start the experiment. In all plate reader experiments, a glucose concentration of 10 mM was used. […] Plate reader experiments were carried out in 200 μL of M9 medium using an ELx808 plate reader (BioTek). Growth (OD600) was measured over time using continuous shaking and measurements were taken every three minutes. Flask experiments were performed in 250 mL Erlenmeyer flasks filled with 25 mL of M9 minimal medium containing 50 mM of glucose. […] The cultures were incubated in a rotary shaker at 200 rpm at 30° C.
The production of aromatic compounds often comes with unwanted toxicity. One way of circumventing this is the utilization of microbial hosts with high tolerance towards aromatic compounds (Li et al., 2020. Biotechnol Adv 41: 107548).
The presence of phenolic hydroxyl groups has been associated with the inhibition of microbial enzymes and the damage of the bacterial membrane (Miklasinska-Majdanik et al., 2018. Int J Environ Res Public Health 15: 2321).

[1] = Abiotic escape of anisole from M9 minimal media overnight; format: physicochemical; details: 2 mM anisole in M9 minimal media, flasks
[2] = Distribution of anisole and phenol between water and organic solvent after 1 h; format: physicochemical; details: 1 mM in water, equal volume of dodecane, ethyl acetate, isopropyl myristate or tributyrin
Description: A main bottleneck when producing anisole is its volatility. To overcome this problem an organic solvent can be used in biphasic fermentation to quantify volatile or insoluble products in water, allowing their recovery. To enable in situ anisole extraction, we tested four organic solvents: dodecane, ethyl acetate, isopropyl myristate, and tributyrin. […] Next, 0.9 ml of the stock solution was mixed with an equal volume of one of the selected solvents in an Eppendorf tube.
Therefore, dodecane was chosen as the solvent for anisole extraction.

[3] = Anisole capture at different dodecane ratios, 24 h flasks; format: physicochemical; details: 30° C., 250 rpm
Description: An additional experiment was performed to determine the optimal ratio of the two phases. Ratios of 0%, 5%, 15%, 30%, 50%, and 100% dodecane were tested in a total volume of 25 ml. […] Next, dodecane was added to the flasks according to the predetermined ratios. Flasks were incubated for 24 h at 30° C. and 250 rpm to simulate P. putida KT2440 growth. After incubation, samples were collected separately from each phase and concentrations were measured using HPLC. […] After 24 hours, samples containing the organic phase from 5% and 15% dodecane flasks captured on average 19.42% and 39.57% of the initial concentration of anisole, respectively. […] Flasks containing 30% dodecane, extracted approximately 75% of the anisole which was further increased to nearly 95% flasks with a 50% ratio.

phenol [4] = test: Phenol consumption and anisole production by P. putida KT2440 expressing CVOMT1; format: cell-based, Pseudomonas putida; details: 50 mM glucose, 1 mM phenol
Description: as §1

phenol [5] = test: Phenol consumption and anisole production, CVOMT1 vs POMT1 in P. putida KT2440 with 50% dodecane; format: cell-based, Pseudomonas putida; details: for anisole produced, maximum / phenol consumed: 50 mM glucose, 1 mM phenol, 1 mM methionine, 50% dodecane; for phenol consumed: 24 hours
Description: Cell growth was determined by measuring the optical density at 600 nm (OD600) using an OD600 DiluPhotometer spectrophotometer (IMPLEN) or a Synergy plate reader (BioTek Instruments). Analysis of glucose in supernatants was performed using high-performance liquid chromatography (HPLC) (Thermo Fisher Scientific) equipped with an Aminex HPX-87H column. The mobile phase was 5 mM of H2SO4 at a flow rate of 0.6 mL/min, the column temperatures were held at 60° C. and the compounds were detected using a Shodex RI-101 detector (Shodex). […] The mobile phase consisted of Milli-Q water (A), 100 mM formic acid (B) and acetonitrile (C) with a flow rate of 1 mL/min at 30° C. Chromatographic separation of analytes was attained using the following gradient program: t=0-5 min: A-55%, B-10% and C-35% from t=5-10 min ramp to A-10%, B-10% and C-80% and held until 15 min. Then from t=15-16 min, the gradient was returned to A-55%, B-10% and C-35% and maintained isocratic for a total run time of 18 min. For quantification, calibration curves were prepared using pure standards (purity) purchased from Sigma-Aldrich.
Next, an aim was set to examine the anisole production rate of POMT1 compared to CVOMT1. […] An initial sample was taken and hereafter 50% dodecane was added. Cells were then incubated overnight at 30° C. and 250 rpm. Samples were taken at time zero only from the medium and then after 24 hours from both phases and analyzed at the HPLC.

phenol [6] = test: Growth-coupled methyltransferase selection in CM-Aux; format: cell-based, Pseudomonas putida
Text: This design relies on the conversion of methionine into cysteine through the intermediate homocysteine with the aid of a SAM-dependent methyltransferase. Exogenously added methionine is converted into SAM, which would subsequently be converted into S-adenosyl-l-homocysteine (SAH) by CVOMT1 (FIG. 8C). Then, SAH is converted into homocysteine and subsequently into cysteine by reverse trans-sulfuration restoring growth in the process.
Next, an aim was set to install the reverse trans-sulfuration module which will convert homocysteine to the amino acid cysteine. This is a two-step process, catalyzed by the enzymes cystathionine-β-synthase and cystathionine-γ-lyase. The C-module was created by cloning the cystathionine-β-synthase (Cys) from S. cerevisiae and the cystathionine-γ-lyase (PA) from Pseudomonas aeruginosa on a pSEVAb62 backbone. The CM-Aux strain was equipped with the C-module and growth of the strain in minimal media was assessed. In all cases, growth could only occur upon the expression of the C-module. This module converts homocysteine to […], and if active, produces cysteine, restoring growth (FIG. 8A). […]
Next, an aim was set to examine the anisole production rate of POMT1 compared to CVOMT1. […] Samples were taken at time zero only from the medium and then after 24 hours from both phases and analyzed at the HPLC.

COc1ccccc1 [anisole]
effect on growth (P. putida KT2440): did not show any detrimental effects on growth
anisole disappeared from media [1]: 89%
capture of anisole by organic solvents [2]: successfully captured
anisole in water phase ([3]; 0% dodecane): almost undetectable
anisole captured in organic phase, of initial concentration ([3]; 5% dodecane): 19.42%
anisole captured in organic phase, of initial concentration ([3]; 15% dodecane): 39.57%
anisole extracted ([3]; 30% dodecane): approximately 75%
anisole extracted ([3]; 50% dodecane): ~95%

Oc1ccccc1 [phenol]
concentration up to which growth rates did not deviate (P. putida KT2440; growth of P. putida KT2440): up to 2 mM
concentration with detrimental effect on growth rate and final cell density (P. putida KT2440; growth of P. putida KT2440): ≥ 3000 µM
phenol concentration the strain was able to withstand (P. putida KT2440; growth of P. putida KT2440): up to 5 mM

B1: CVOMT1: chavicol O-methyltransferase (EC 2.1.1.146) from Ocimum basilicum, SEQ ID NO:1 (protein, listed as Ocimum basilicum)
chain: MALQNMDISLSTEQLLQAQAHVWNHMYAFANSMSLKCAIQLGIPDILHKHDHPMTLSQLLKAIPINKEKSQSFQRLMRALVNSNFFIEENSNNQEVCYWLTPASRLLLKGAPLTVAPLVQVVLDPTFTNPWHYMSEWFKHENHATQFEAANGCTFWEKLANKPSMGRFFDEAMSCDSRLVAHVLTKDYKHVIDGIRTLVDVGGGNGTMAKAIVEAVPTMKCTVLDLPHVVAGLESTDKLSYIGGDMFQSIPSADAILLKFIIHDWDDEEGLKILKRCKDAVGIGGKVIIIDVVVGVNHDVDEVLEDQLHFDMAMMSYFNAKERTMNEWEKLISAAGFTSYKLTPAFGVRSLIEAYP
anisole yield of the converted phenol (phenol [4]; 1 mM methionine added): 15.5 % mol/mol
anisole detection (phenol [4]; no methionine): no anisole was detected
phenol consumed (phenol [4]; no methionine, 24 hours): 0.12 mM
anisole produced, maximum (phenol [5]): 0.06 mM
phenol consumed (phenol [5]): 0.23 mM
doubling time (phenol [6]; CM-Aux with C- and A-module, phenol and methionine added (1 mM)): 1.8 h

B2: POMT1: evolved phenol O-methyltransferase, SEQ ID NO:1 with D264N alteration (SEQ ID NO:3) (protein)
chain: MALQNMDISLSTEQLLQAQAHVWNHMYAFANSMSLKCAIQLGIPDILHKHDHPMTLSQLLKAIPINKEKSQSFQRLMRALVNSNFFIEENSNNQEVCYWLTPASRLLLKGAPLTVAPLVQVVLDPTFTNPWHYMSEWFKHENHATQFEAANGCTFWEKLANKPSMGRFFDEAMSCDSRLVAHVLTKDYKHVIDGIRTLVDVGGGNGTMAKAIVEAVPTMKCTVLDLPHVVAGLESTDKLSYIGGDMFQSIPSADAILLKFIIHNWDDEEGLKILKRCKDAVGIGGKVIIIDVVVGVNHDVDEVLEDQLHFDMAMMSYFNAKERTMNEWEKLISAAGFTSYKLTPAFGVRSLIEAYP
increase in anisole concentration compared to wild-type enzyme (phenol [5]): 2.33 fold
anisole produced, maximum (phenol [5]): 0.14 mM
phenol consumed (phenol [5]): 0.38 mM
phenol consumption more than CVOMT1 (phenol [5]; within 24 hours): 65%
phenol concentration at which maximum growth rate is reached (phenol [6]; CM-Aux, 1 mM methionine, different phenol concentrations): 0.2 mM
